Measured values: patent US9108993B2, “Pyrazole derivatives as sphingosine 1-phosphate (S1P) receptor modulators” (Allergan, Inc., priority 2013, dated 2015)

Molecular target: T1, human S1P1 receptor (Homo sapiens, UniProt P21453)
T1 construct: expressed in transfected cells; membranes were used
Test: GTP γ35S binding assay for S1P1 activity
Assay type: biochemical
Conditions: membranes of cells stably expressing the S1P1 receptor, agonist potency
Method: Compounds were synthesized and tested for S1P1 activity using the GTP γ^35S binding assay. These compounds may be assessed for their ability to activate or block activation of the human S1P1 receptor in cells stably expressing the S1P1 receptor.
GTP γ^355 binding was measured in the medium containing (mM) HEPES 25, pH 7.4, MgCl2 10, NaCl 100, dithiothreitol 0.5, digitonin 0.003%, 0.2 nM GTP γ^35 S, and 5 μg membrane protein in a volume of 150 μl. Test compounds were included in the concentration range from 0.08 to 5,000 nM unless indicated otherwise. Membranes were incubated with 100 μM 5′ adenylylimidodiphosphate for 30 min, and subsequently with 10 μM GDP for 10 min on ice. Drug solutions and membrane were mixed, and then reactions were initiated by adding GTP γ^35S and continued for 30 min at 25° C. Reaction mixtures were filtered over Whatman GF/B filters under vacuum, and washed three times with 3 mL of ice-cold buffer (HEPES 25, pH7.4, MgCl2 10 and NaCl 100). Filters were dried and mixed with scintillant, and counted for ^35S activity using a β-counter. Agonist-induced GTP γ^35S binding was obtained by subtracting that in the absence of agonist. Binding data were analyzed using a non-linear regression method. In case of antagonist assay, the reaction mixture contained 10 nM S1P in the presence of test antagonist at concentrations ranging from 0.08 to 5000 nM.

T1 sequence (P21453 whole entry): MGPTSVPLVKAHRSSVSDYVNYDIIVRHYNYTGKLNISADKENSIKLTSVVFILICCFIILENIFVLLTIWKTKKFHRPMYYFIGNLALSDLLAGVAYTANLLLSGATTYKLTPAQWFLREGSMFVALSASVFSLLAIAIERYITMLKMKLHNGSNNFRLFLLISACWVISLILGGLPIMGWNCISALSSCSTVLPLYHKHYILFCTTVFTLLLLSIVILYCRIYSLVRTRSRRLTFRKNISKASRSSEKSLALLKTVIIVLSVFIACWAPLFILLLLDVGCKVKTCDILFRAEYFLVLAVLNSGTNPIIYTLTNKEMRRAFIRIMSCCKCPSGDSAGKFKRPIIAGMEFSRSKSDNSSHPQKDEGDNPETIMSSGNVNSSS

EC50: 262 nM
SMILES: Cc1nn(C(=O)CCc2ccc(CNCCC(=O)O)cc2)c2c1C1C(C2)C1(C)C (stereo not shown) [Compound 1, 3-({4-[3-oxo-3-(3,4,4-trimethyl-3b,4,4a,5-tetrahydro-1H-cyclopropa[3,4]cyclopenta[1,2-c]pyrazol-1-yl)propyl]benzyl}amino)propanoic acid]
